Structures can show the parent of a compound that is named as a salt.
How the values were obtained:
Type in all cases: biochemical
[1] = molecular target: T1, serotonine (5-HT) reuptake in synaptosomes (Rattus norvegicus, UniProt P31652); assay: In vitro inhibition of 3H-5-HT reuptake in synaptosomes; conditions: mean ± spread (n), read-out: 5-HT-uptake IC50
T1 construct: in synaptosomes as described in WO 97/16451; from tissue
Method: (§1) The compound was tested for its ability to inhibit the reuptake of the monoamine neurotransmitters dopamine (DA) noradrenaline (NA) and serotonine (5-HT) in synaptosomes as described in WO 97/16451.
(§2) The test values are given as IC50 (the concentration (μM) of the test substance which inhibits the specific binding of ^3H-DA, ^3H-NA, or ^3H-5-HT by 50%).

[2] = molecular target: T2, noradrenaline (NA) reuptake in synaptosomes (Rattus norvegicus, UniProt Q63380); assay: In vitro inhibition of 3H-NA reuptake in synaptosomes; conditions: mean ± spread (n), read-out: NA-uptake IC50
T2 construct: in synaptosomes as described in WO 97/16451; from tissue
Method: as §1, §2

[3] = molecular target: T3, dopamine (DA) reuptake in synaptosomes (Rattus norvegicus, UniProt P23977); assay: In vitro inhibition of 3H-DA reuptake in synaptosomes; conditions: mean ± spread (n), read-out: DA-uptake IC50
T3 construct: in synaptosomes as described in WO 97/16451; from tissue
Method: as §1, §2

T1 sequence (P31652 whole entry): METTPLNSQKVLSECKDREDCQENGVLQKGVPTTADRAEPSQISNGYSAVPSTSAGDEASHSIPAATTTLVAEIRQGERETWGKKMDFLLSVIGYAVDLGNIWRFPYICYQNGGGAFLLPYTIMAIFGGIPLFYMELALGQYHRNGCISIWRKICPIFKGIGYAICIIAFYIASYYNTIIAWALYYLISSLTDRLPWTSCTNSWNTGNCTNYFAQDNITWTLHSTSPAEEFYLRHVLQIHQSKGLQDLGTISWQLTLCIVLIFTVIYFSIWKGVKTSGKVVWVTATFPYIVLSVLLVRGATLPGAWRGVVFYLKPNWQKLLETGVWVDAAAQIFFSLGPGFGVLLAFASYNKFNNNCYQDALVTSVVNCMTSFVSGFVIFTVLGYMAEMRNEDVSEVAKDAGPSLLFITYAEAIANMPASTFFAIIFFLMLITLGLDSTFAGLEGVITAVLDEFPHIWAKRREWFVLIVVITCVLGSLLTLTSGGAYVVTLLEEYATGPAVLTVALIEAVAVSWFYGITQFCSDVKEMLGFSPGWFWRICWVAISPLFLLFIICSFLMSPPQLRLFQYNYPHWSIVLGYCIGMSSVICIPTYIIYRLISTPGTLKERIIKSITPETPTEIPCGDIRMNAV
T3 sequence (P23977 whole entry): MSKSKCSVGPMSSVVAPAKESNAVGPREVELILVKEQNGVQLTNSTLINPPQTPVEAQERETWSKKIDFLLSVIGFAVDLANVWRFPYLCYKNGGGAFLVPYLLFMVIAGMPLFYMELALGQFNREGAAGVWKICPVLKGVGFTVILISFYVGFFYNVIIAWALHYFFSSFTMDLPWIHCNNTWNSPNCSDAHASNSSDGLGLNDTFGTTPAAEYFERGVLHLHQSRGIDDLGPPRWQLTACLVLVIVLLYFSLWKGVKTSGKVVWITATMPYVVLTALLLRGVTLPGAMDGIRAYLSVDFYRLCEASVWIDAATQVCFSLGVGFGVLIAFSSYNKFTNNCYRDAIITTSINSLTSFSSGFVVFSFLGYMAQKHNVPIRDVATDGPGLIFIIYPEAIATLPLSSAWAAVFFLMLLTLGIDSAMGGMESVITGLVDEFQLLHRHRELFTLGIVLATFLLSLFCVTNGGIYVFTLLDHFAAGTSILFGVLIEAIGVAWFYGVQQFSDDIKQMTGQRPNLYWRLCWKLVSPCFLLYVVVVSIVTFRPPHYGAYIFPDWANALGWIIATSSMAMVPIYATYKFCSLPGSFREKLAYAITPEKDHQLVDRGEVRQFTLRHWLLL
T2 sequence (Q63380 1-617): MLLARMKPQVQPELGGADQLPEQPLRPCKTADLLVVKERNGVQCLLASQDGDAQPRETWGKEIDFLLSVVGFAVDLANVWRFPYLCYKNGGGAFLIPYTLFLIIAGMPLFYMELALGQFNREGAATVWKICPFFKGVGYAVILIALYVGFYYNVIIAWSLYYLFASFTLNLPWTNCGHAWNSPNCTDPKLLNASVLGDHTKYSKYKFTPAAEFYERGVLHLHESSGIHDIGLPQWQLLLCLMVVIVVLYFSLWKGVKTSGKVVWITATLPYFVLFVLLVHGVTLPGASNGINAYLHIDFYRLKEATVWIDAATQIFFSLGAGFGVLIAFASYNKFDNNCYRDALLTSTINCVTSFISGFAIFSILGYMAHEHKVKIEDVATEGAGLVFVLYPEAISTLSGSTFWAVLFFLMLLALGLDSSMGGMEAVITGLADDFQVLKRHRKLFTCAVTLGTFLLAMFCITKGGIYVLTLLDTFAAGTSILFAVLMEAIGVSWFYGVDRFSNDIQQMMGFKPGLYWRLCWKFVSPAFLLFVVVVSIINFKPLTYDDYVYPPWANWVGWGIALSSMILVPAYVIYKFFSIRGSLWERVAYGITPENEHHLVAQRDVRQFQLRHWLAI

## Cc1cc2ccc(O[C@@H]3C[C@H]4CC[C@@H](C3)N4)cc2oc1=O [Compound 1.1, exo-7-[(8-Aza-bicyclo[3.2.1]oct-3-yl)oxy]-3-methyl-chromen-2-one hydrochloric Acid Salt]
[1]
  IC50: 0.76 nM
[2]
  IC50: 11 ± 6.1 nM
[3]
  IC50: 170 ± 21 nM
